Experimental data reported in patent publication US4886813A, “Proline derivatives” (Otsuka Pharmaceutical Factory, Inc., priority 1985, dated 1989).

Molecular target: T1, angiotensin-converting enzyme (ACE) (Oryctolagus cuniculus, UniProt P12822)
T1 construct: enzyme solution prepared from rabbit lung acetone powder; tissue Sigma Chemical Co., Ltd., U.S.A; host or cells: rabbit lung (acetone powder)
T1 sequence (P12822 34-1310): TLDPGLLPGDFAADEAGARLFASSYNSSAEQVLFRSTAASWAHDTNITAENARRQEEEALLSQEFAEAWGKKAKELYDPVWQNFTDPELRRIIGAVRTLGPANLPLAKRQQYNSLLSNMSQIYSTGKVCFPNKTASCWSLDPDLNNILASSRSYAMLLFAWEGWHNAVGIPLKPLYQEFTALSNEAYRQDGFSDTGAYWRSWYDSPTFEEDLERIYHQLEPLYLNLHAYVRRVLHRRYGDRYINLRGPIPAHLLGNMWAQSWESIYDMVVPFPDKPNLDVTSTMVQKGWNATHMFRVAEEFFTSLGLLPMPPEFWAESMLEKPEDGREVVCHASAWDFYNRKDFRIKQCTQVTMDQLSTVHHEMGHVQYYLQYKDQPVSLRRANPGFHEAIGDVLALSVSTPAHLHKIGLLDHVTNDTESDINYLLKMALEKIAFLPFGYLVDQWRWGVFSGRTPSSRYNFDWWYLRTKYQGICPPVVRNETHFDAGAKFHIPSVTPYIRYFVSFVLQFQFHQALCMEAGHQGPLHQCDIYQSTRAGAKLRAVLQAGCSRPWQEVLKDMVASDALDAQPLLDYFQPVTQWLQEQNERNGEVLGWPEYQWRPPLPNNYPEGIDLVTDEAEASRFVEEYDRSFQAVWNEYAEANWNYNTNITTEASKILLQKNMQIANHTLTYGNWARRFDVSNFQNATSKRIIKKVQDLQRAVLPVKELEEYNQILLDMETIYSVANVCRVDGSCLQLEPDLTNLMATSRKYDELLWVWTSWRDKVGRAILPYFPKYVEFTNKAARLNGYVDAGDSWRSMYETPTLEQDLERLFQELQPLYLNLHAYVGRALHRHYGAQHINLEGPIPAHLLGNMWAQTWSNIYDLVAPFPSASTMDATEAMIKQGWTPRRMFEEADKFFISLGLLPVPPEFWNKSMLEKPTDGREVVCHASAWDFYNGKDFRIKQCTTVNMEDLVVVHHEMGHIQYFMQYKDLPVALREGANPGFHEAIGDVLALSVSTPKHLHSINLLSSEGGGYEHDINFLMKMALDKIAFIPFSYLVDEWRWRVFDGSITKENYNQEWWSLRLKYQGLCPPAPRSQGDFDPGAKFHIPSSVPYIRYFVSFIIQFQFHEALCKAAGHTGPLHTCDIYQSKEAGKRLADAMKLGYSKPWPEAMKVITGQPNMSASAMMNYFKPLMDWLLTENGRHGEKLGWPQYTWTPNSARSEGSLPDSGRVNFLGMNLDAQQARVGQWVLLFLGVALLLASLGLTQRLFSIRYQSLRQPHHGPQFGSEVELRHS
Assay: Inhibitory activity against angiotensin-converting enzyme (ACE)
Format: biochemical
Settings: enzyme from rabbit lung acetone powder; substrate hippuryl-histidyl-leucine; 37° C.; preincubation 10 minutes, reaction 45 minutes
Protocol: A 100 μl quantity of an enzyme solution prepared from rabbit lung acetone powder (product of Sigma Chemical Co., Ltd., U.S.A.) was mixed with 100 μl of a sample solution. The mixture was gently shaken at 37° C. for 10 minutes. To the reaction mixture was added 100 μl of a solution containing 6.69 mM of hippuryl-histidyl-lecuine (product of Peptide Institute, Inc., Japan) as a substrate. The mixture was reacted at 37° C. for 45 minutes while being shaken. The reaction was terminated by addition of 200 μl of a 1N sulfuric acid to the reaction mixture. Sodium chloride (saturation amount) and diethyl ether (2 ml) were added to the reaction mixture to extract the hippuric acid formed by the reaction. The resulting mixture was vigorously shaken for 15 minutes and centrifuged at 2000 r.p.m. for 5 minutes. A 1.5 ml quantity of the ether layer was separated. After the solvent was distilled off, the residue was redissolved in 1.5 ml of distilled water and the absorbance of 228 nm was measured. A control was prepared by repeating the same procedure as above except that […] of distilled water was used in place of the sample solution.
The inhibitory activity was calculated by deducting the absorbance value of the residue formed by addition of the sample solution from that of the control and the resulting value was divided by the absorbance value of the control and multipled by 100, thereby giving a percent inhibition. The inhibitory activity was expressed as IC50, i.e., the concentration of the same sample solution in the reaction mixture in which concentration 50% inhibition is achieved.

Compound	IC50 [nM]
CC(N[C@@H](CSC1(C)CCCCC1)C(=O)O)C(=O)N1CCC[C@H]1C(=O)O (stereo partly drawn)	5.21
CC(N[C@@H](CSC1Cc2ccccc2C1)C(=O)O)C(=O)N1CCC[C@H]1C(=O)O (stereo partly drawn) [Compound 2]	0.687
CC(N[C@@H](CSC1CCCC1)C(=O)O)C(=O)N1CCC[C@H]1C(=O)O (stereo partly drawn) [Compound 3]	1.02
CC(N[C@@H](CSCC(=O)NC1CCCC1)C(=O)O)C(=O)N1CCC[C@H]1C(=O)O (stereo partly drawn) [Compound 4]	61.1
CC(N[C@@H](CSCC(=O)NCc1ccccc1)C(=O)O)C(=O)N1CCC[C@H]1C(=O)O (stereo partly drawn) [Compound 5]	342
CC(N[C@@H](CSCC(=O)N1CCCCC1)C(=O)O)C(=O)N1CCC[C@H]1C(=O)O (stereo partly drawn) [Compound 6]	443
CCCCCCCSC[C@H](NC(C)C(=O)N1CCC[C@H]1C(=O)NC(Cc1ccccc1)C(=O)O)C(=O)O (stereo partly drawn) [Compound 7]	24.1
CCCCCCCSC[C@H](NC(C)C(=O)N1CCC[C@H]1C(=O)NC(C)C(=O)O)C(=O)O (stereo partly drawn) [Compound 8]	56.3
CCCCCCCSC[C@H](NC(C)C(=O)N1CCC[C@H]1C(=O)NC(C(=O)O)C(C)C)C(=O)O (stereo partly drawn) [Compound 9]	33.5
